# Legend:
# RAW 264.7 cells [1] = assay: LPS-induced inflammatory signaling and cytokine secretion in RAW 264.7 cells; format: cell-based, mouse; settings: for LPS-induced phosphorylation of JNK and IKKβ, IκB degradation, cytokine secretion and inflammatory gene expression level: pretreated 1 hr
# Text: FIG. 1. Expression level of GPR120 and GPR120-mediated anti-inflammatory response in RAW 264.7 cells. (A) The mRNA expression pattern of various lipid sensing GPCRs is shown in adipose tissue, (B) CD11c+ bone marrow-derived dendritic cells (BMDCs), bone marrow-derived macrophages (BMDMs), IPMacs, 3T3-L1 preadipocytes, differentiated 3T3-L1 adipocytes, RAW 264.7 cells and L6 myocytes. Ribosomal protein S3 (RPS3) was used as internal control. (C) Expression of GPR120 in SVF, adipocytes and hepatic Kupffer cells from chow (NC)- or HFD-fed mice was examined by q-PCR. Data are expressed as the mean±SEM of at least three independent experiments in triplicate. *, p<0.05 versus NC. (D) RAW 264.7 cells, transfected with scrambled (Scr) or GPR120 #2 siRNA (GPR120 KD), were treated with 100 μM of GW9508 for 1 hr prior to LPS (100 ng/ml) treatment for 10 min and then subjected to western blotting. […] (E) Cytokine secretion level was measured in RAW 264.7 cells by ELISA. Data are expressed as the mean±SEM of three independent experiments. *, p<0.05 versus LPS treatment in scrambled siRNA transfected cells. See also FIGS. 8 and 9.
# Proteins from tissues or cell lysates were extracted with radioimmune precipitation buffer in the presence of phosphatase inhibitors and protease inhibitors (Roche Applied Science). […] of proteins/lane were separated on a 10% polyacrylamide, precast SDS gel (Bio-Rad) followed by transfer on polyvinylidene difluoride membrane (Immobilon, Millipore), and western blotting was performed as described (Nguyen et al., 2005) with indicated antibodies. For immunoprecipitations, lysates were incubated with 1 μg of anti-β-arrestin2, TAK1 antibody (Cell signaling), or GFP antibody (Santa Cruz Biotechnology) overnight at 4° C. and immune complexes precipitated with Protein A/G-conjugated beads (Invitrogen). Beads were washed with PBS and resuspended in sample buffer. Lysates and immune complexes were separated by SDS-PAGE, subjected to western blotting.
# TNF-α and IL-6 were directly quantified from RAW 264.7 cells with or without GPR120 knockdown, or IPMacs culture medium. Cells were treated with 100 μM GW9508 or DHA for 1 hr prior to treat 100 ng/ml LPS for 6 hr and then collect medium from the cells and subjected to ELISA according to the manufacturer's instructions (BIOSOURCE). For GLP-1 measurement, mouse blood was collected 1 hr after indicated diet feeding. Adequate inhibitors (protease inhibitors and Diprotin A as DPP IV inhibitor) were used while blood was collecting and then subjected to ELISA to the manufacturer's instructions (ALPCO, Salem, N.H.).
# RAW 264.7 cells [2] = assay: ERK1/2 phosphorylation in RAW 264.7 cells; format: cell-based, mouse; settings: 100 μM, 5 min
# Description: FIG. 9, related to FIGS. 2 and 3. DHA-stimulated GPR120 inhibits TNF-α, TLR2 and TLR3-induced inflammation via a β-arrestin2 dependent mechanism. (A) ERK1/2 phosphorylation stimulated by GPR120 activation in RAW 264.7 cells transfected with scrambled or GPR120 siRNA. Cells were treated with 100 μM of DHA, α-linolenic acid or palmitic acid for 5 min. […] Data are expressed as the mean±SEM of three independent experiments. *, p<0.05 versus scrambled siRNA transfected cells. (B) Differentiated 3T3-L1 adipocytes were transfected with scrambled or GPR120 siRNA (GPR120 KD) and then 48 hr after siRNA transfection, cells were treated with 100 μM of DHA or GW9508 for 1 hr prior to TNF-α (10 ng/ml) treatment for 7 min prior to harvesting and then subjected to western blotting with the indicated antibodies. (C) RAW 264.7 cells, transfected with scrambled or GPR120 siRNA (GPR120 KD), were treated with 100 μM of DHA for 1 hr prior to 10 min TLR2 ligand, Pam3CSK4 (50 ng/ml), or TLR3 ligand, poly(I:C) (1 μg/ml), treatment and then subjected to western blotting. (D) To characterize the interaction site between β-arrestin2 and GPR120 or TAB1, HA-tagged GPR120 and FLAG-tagged serial C-terminal deletion mutants of β-arrestin2 (full, 1-300, 1-253, 1-176, and 1-163) or an N-terminal deletion mutant (80-410) were cotransfected in 293 cells. For immunoprecipitation of FLAG-βarr2 and HA-GPR120, cells were treated with DHA for 30 min, while DHA was used for 1 hr to detect endogenous TAB1 and FLAG-βarr2 interactions.
# (§1) Proteins from tissues or cell lysates were extracted with radioimmune precipitation buffer in the presence of phosphatase inhibitors and protease inhibitors (Roche Applied Science). […] of proteins/lane were separated on a 10% polyacrylamide, precast SDS gel (Bio-Rad) followed by transfer on polyvinylidene difluoride membrane (Immobilon, Millipore), and western blotting was performed as described (Nguyen et al., 2005) with indicated antibodies. […]
# IPMacs from WT mice = assay: In vitro transwell chemotaxis assay, WT IPMacs; format: cell-based, mouse; settings: pretreatment 3 hr before exposure to 3T3-L1 adipocyte conditioned media
# Description: (§2) It seemed possible that the reduction in ATM content in WT animals on the ω-3 FA diet reflected decreased chemotaxis of macrophages. To test this hypothesis, we measured the migratory capacity of IPMacs from WT and GPR120 KO mice using an in vitro transwell chemotaxis assay. […] Similar experiments were performed using the specific chemokine, monocyte chemotactic protein-1 (MCP-1) as a chemoattractant, rather than CM, and these experiments yielded identical results (FIG. 6D).
# In vitro chemotaxis assay was performed as previously described (Patsouris et al., 2009). Briefly, mature 3T3-L1 adipocytes, more than 99% of cells showing large lipids droplets (12 days after differentiation protocol initiation), were used for preparation of conditioned media. […] For the migration per se, 100,000 IPMacs from WT or GPR120 KO mice were used per condition. The IPMacs were placed in the upper chamber of an 8 μm polycarbonate filter (24-transwell format; Corning, Lowell, Mass.), whereas adipocyte conditioned medium or MCP-1 treatment was placed in the lower chamber. After 3 hr of migration, cells were fixed in formalin and stained with 4′,6-diamidino-2-phenylindole and observed.
# [3] = tested on: IPMacs from GPR120 KO mice; assay: In vitro transwell chemotaxis assay, GPR120 KO IPMacs; format: cell-based, mouse; settings: pretreatment before exposure to conditioned media
# Description: as §2
# In vitro chemotaxis assay was performed as previously described (Patsouris et al., 2009). Briefly, mature 3T3-L1 adipocytes, more than 99% of cells showing large lipids droplets (12 days after differentiation protocol initiation), were used for preparation of conditioned media. Treatment with the 100 μM DHA for 6 hr was performed in serum-free DMEM cultured IPMacs. For the migration per se, 100,000 IPMacs from WT or GPR120 KO mice were used per condition. The IPMacs were placed in the upper chamber of an 8 μm polycarbonate filter (24-transwell format; Corning, Lowell, Mass.), whereas adipocyte conditioned medium or MCP-1 treatment was placed in the lower chamber. After 3 hr of migration, cells were fixed in formalin and stained with 4′,6-diamidino-2-phenylindole and observed.
# 3T3-L1 adipocytes [4] = assay: GLUT4 translocation and 2-deoxyglucose uptake in 3T3-L1 adipocytes; format: cell-based; settings: for glucose transport: pretreated 30 min
# Description: FIG. 4. GPR120 activation enhances GLUT4 translocation and glucose uptake. (A) 3T3-L1 adipocytes were transfected with a dually tagged HA-GLUT4-GFP construct. Total GLUT4 expression was determined by GFP fluorescence, and GLUT4 translocation to the cell surface after 100 ng/ml insulin or 100 μM DHA stimulation for 30 min was determined by indirect immunofluorescence of the HA-conjugated with Alexa 594 in fixed cells. Translocation following insulin stimulation was expressed as a percentage of the maximum response. Bar graph represents the mean±SEM data from four independent experiments. *, p<0.05 vs. vehicle treatment. (B) Glucose uptake was measured in WT and GPR120 KO mouse primary adipose tissue and in (C-F) 3T3-L1 adipocytes±siRNA with the indicated treatment. […] Data are expressed as mean±SEM of three independent experiments in triplicate. *, p<0.05 vs. basal activity. The indicated siRNA knockdown efficiency was validated by western blotting. See also FIG. 10.
# HA-GLUT4-eGFP expression vector were electroporated into day 8 post differentiated 3T3-L1 adipocytes for monitoring of GLUT4 translocation as previously described (Yoshizaki et al., 2007). For 2-DOG assay, 3T3-L1 adipocytes were pretreated for 30 min with the indicated drug; and stimulated with 3 ng/ml of insulin for 30 min at 37° C. L6 myocytes were pretreated for 30 min with 100 μM DHA and then stimulated with 100 ng/ml of insulin for 30 min. Glucose uptake was measured as previously described (Imamura et al., 1999).
# L6 myocytes = assay: 2-deoxyglucose uptake in L6 myocytes; format: cell-based; settings: 100 μM, compared to vehicle treated cells
# Description: FIG. 11, related to FIG. 5. Hyperinsulinemic/euglycemic clamp studies in bone marrow transplanted animals and muscle expression of GPR120. For bone marrow transplantation studies, WT or GPR120 KO mouse bone marrow (BM) was injected into irradiated WT C57B1/6 animals after 8 weeks for BM reconstitution, GPR120 was >90% reduced in circulating monocytes. Animals were then kept on either chow or switched to 60% HFD for weeks (±supplemention with ω-3 FAs for 5 weeks). (A) BMT GPR120 KO animals on chow are insulin resistant compared to WT controls. This effect is mediated by decreased GIR and a greater suppression of HGP in WT animals compared to KOs (n=5 for WT and n=6 per KO group). (B) BMT GPR120 KO animals on HFD supplemented with […] FAs (+ω3) are insulin resistant compared to WT controls. This effect is shown by decreased GIR, decreased IS-GDR, and a greater suppression of HGP in WT animals compared to KOs. (C) GPR120 expression levels in various tissues. RPS3 was the internal control for normalization. GPR120 is not expressed in soleus, or EDL muscle. […] Data are expressed as mean±SEM. *, p<0.05 compared to WT in (A) and (B).
# HA-GLUT4-eGFP expression vector were electroporated into day 8 post differentiated 3T3-L1 adipocytes for monitoring of GLUT4 translocation as previously described (Yoshizaki et al., 2007). […] Glucose uptake was measured as previously described (Imamura et al., 1999).
# 3T3-L1 adipocytes [5] = assay: Akt and IRS-1 phosphorylation in 3T3-L1 adipocytes (western blotting); format: cell-based
# Description: FIG. 10, related to FIG. 4. DHA activates Akt phosphorylation in a GPR120-dependent manner. (A) Differentiated 3T3-L1 adipocytes were transfected with scrambled or GPR120 siRNA and then 48 hr after siRNA transfection, cells were treated with 100 μM of DHA 30 min prior to insulin (3 ng/ml) treatment for 7 min followed by western blotting with phosphorylated Akt (S473) antibody. […] Data are expressed as the mean±SEM of three independent experiments. *, p<0.05 versus basal. (B) Cells were treated with the PI3K inhibitor LY294002 (50 μM) for 30 min before DHA (100 μM) or insulin (3 ng/ml) treatment. (C) Phosphorylation of IRS-1 was detected after DHA or insulin treatment of 3T3-L1 adipocytes. (D) Schematic diagram of GPR120-mediated Akt activation in 3T3-L1 adipocytes.
# as §1
# WT mice on 60% HFD = assay: Hyperinsulinemic/euglycemic clamp in HFD-fed WT mice; format: in vivo, mouse; settings: gavage 300 μl EPAX 1050TG, clamp 4 hr after gavage, vs saline
# [6] = 100 μM 1 hr prior to LPS 100 ng/ml 10 min
smiles,measurement,setting,value
CC/C=C\C/C=C\C/C=C\C/C=C\C/C=C\C/C=C\CCC(=O)O [DHA],LPS-induced TAK1 and MKK4 phosphorylation,RAW 264.7 cells [1]; RAW 264.7 cells,abrogated
same,"LPS-induced phosphorylation of JNK and IKKβ, IκB degradation, cytokine secretion and inflammatory gene expression level",RAW 264.7 cells [1]; RAW 264.7 cells,strongly inhibited
same,ERK phosphorylation,RAW 264.7 cells [2],activated
same,inhibition of chemotactic capacity,IPMacs from WT mice,80%
same,effect on chemotactic capacity,[3],no significant effect
same,GLUT4 translocation to the cell surface,"3T3-L1 adipocytes [4]; 100 μM, 30 min",increased
same,effect on glucose uptake relative to the effect of insulin,3T3-L1 adipocytes [4]; 3T3-L1 adipocytes,30-50%
same,glucose transport,3T3-L1 adipocytes [4],increase
same,glucose uptake,L6 myocytes,not altered
same,IRS-1 phosphorylation,3T3-L1 adipocytes [5],did not stimulate
same,phosphorylation of Akt,3T3-L1 adipocytes [5]; 100 μM,modest effect
same,whole body glucose homeostasis after acute treatment,WT mice on 60% HFD,no effect
O=C(O)CCc1ccc(NCc2cccc(Oc3ccccc3)c2)cc1 [GW9508],IκB degradation,RAW 264.7 cells [1]; [6],prevented
same,LPS stimulated phosphorylation of IKKβ and JNK,RAW 264.7 cells [1]; [6],inhibited
same,TNF-α and IL-6 secretion,"RAW 264.7 cells [1]; 100 μM 1 hr prior to LPS 100 ng/ml 6 hr, ELISA",inhibited
same,"LPS-induced phosphorylation of JNK and IKKβ, IκB degradation, cytokine secretion and inflammatory gene expression level",RAW 264.7 cells [1]; RAW 264.7 cells,strongly inhibited
same,glucose transport,3T3-L1 adipocytes [4],stimulatory effect
CCCCCCCCCCCCCCCC(=O)O [palmitic acid],ERK phosphorylation,RAW 264.7 cells [2],activated
CC/C=C\C/C=C\C/C=C\CCCCCCCC(=O)O [α-linolenic acid],ERK phosphorylation,RAW 264.7 cells [2],activated

# From patent US8987332B2, “Methods of treating inflammatory conditions” (The Regents of the University of California, priority 2009, dated 2015)
